Structures can show the parent of a compound that is named as a salt. Where two headings read alike, the source gives them in different places.
Legend:
Type in all cases: physicochemical
[1] = solubility in SGF, FeSSIF, FaSSIF and water
[2] = dynamic vapor sorption (DVS) analysis
Method: Dynamic vapor sorption analysis (DVS) was performed on a DVS Intrinsic PLUS (SMS, UK). The sample was placed into a tared sample chamber and automatically weighed. The sample was dried at 40° C. until the dm/dt was less than 0.002% and cooled to 25° C. The instrument parameters were as follows: step time (min)=60 min; sample temperature=25 C; cycle=full cycle; adsorption (% RH)=0, 10, 20, 30, 40, 50, 60, 70, 80, 90; desorption (% RH)=80, 70, 60, 50, 40, 30, 20, 10, 0; saved data rate=5 sec; total flow rate=200 sccm; post experimental flow rate=200 sccm.

[3] = solid form chemical and physical stability
[4] = about 0% to about 80% RH at 25° C.
[5] = about 0% to about 90% RH at 25° C.

| salt dissociation in solubility media ([1]; FaSSIF, FeSSIF and water) | solubility ([1]; FaSSIF, read-out: solubility in FaSSIF) [µg/mL] | solubility ([1]; FeSSIF, read-out: solubility in FeSSIF) [µg/mL] | solubility ([1]; SGF, simulated gastric fluid, read-out: solubility in SGF) [µg/mL] | hygroscopicity [2] | DVS reversable total mass change [2, 4] | DVS reversable total mass change [2, 5] | form change after DVS analysis [2] | time chemically and physically stable in the solid form ([3]; 40° C./75% RH) | time chemically and physically stable in the solid form ([3]; 60° C.) | Structure (SMILES) |
| --- | --- | --- | --- | --- | --- | --- | --- | --- | --- | --- |
| dissociate to the free base | 1 to 2 | 20 to 30 | > 4100 | only slightly hygroscopic | about 0.6 wt. % | about 1.3 wt. % | No form change | at least 10 days | at least 10 days | [2H]C([2H])([2H])CC(=O)c1cnc(NC(=O)C2CC2)cc1Nc1cccc(-c2ncn(C([2H])([2H])[2H])n2)c1OC [Form 1-1, N-(4-((2-methoxy-3-(1-(methyl-d3)-1H-1,2,4-triazol-3-yl)phenyl)amino)-5-(propanoyl-3,3,3-d3)pyridin-2-yl) cyclopropanecarboxamide, methanesulfonic acid salt] |
| – | – | – | – | – | about 0.6 wt. % | about 0.7 wt. % | No form change | – | – | [2H]C([2H])([2H])CC(=O)c1cnc(NC(=O)C2CC2)cc1Nc1cccc(-c2ncn(C([2H])([2H])[2H])n2)c1OC [Form 6, N-(4-((2-methoxy-3-(1-(methyl-d3)-1H-1,2,4-triazol-3-yl)phenyl)amino)-5-(propanoyl-3,3,3-d3)pyridin-2-yl) cyclopropanecarboxamide, p-toluenesulfonic acid salt] |
| – | – | – | – | – | about 0.9 wt. % | about 1.4 wt. % | No form change | – | – | [2H]C([2H])([2H])CC(=O)c1cnc(NC(=O)C2CC2)cc1Nc1cccc(-c2ncn(C([2H])([2H])[2H])n2)c1OC [Form 5-2, N-(4-((2-methoxy-3-(1-(methyl-d3)-1H-1,2,4-triazol-3-yl)phenyl)amino)-5-(propanoyl-3,3,3-d3)pyridin-2-yl) cyclopropanecarboxamide, sulfuric acid salt] |

Source: patent publication US20250376459A1, “CRYSTALLINE FORMS OF A TYK2 INHIBITOR AND USES THEREOF” (Alumis Inc., priority 2022, published 2025)
